# In ChEMBL document CHEMBL1949511, “Asymmetrical 2,6-bis(benzylidene)cyclohexanones: Synthesis, cytotoxic activity and QSAR study” (Eur J Med Chem, 2012):
# Columns and labels:
# SK-N-MC [1] = assay: Cytotoxicity against human SK-N-MC cells by MTT assay; format: functional, cell-based
# MCF7 [2] = assay: Cytotoxicity against human MCF7 cells by MTT assay; format: functional, cell-based
# MDA-MB-231 [3] = assay: Cytotoxicity against human MDA-MB-231 cells by MTT assay; format: functional, cell-based
# MDA-MB-231 [4] = assay: Ratio of etoposide IC50 to compound IC50 for human MDA-MB-231 cells by MTT assay; format: functional
# SK-N-MC [5] = assay: Ratio of etoposide IC50 to compound IC50 for human SK-N-MC cells by MTT assay; format: functional
# MCF7 [6] = assay: Ratio of etoposide IC50 to compound IC50 for human MCF7 cells by MTT assay; format: functional
Structure (SMILES),IC50 (SK-N-MC [1]),IC50 (MCF7 [2]),IC50 (MDA-MB-231 [3]),Ratio IC50 (MDA-MB-231 [4]),Ratio IC50 (SK-N-MC [5]),Ratio IC50 (MCF7 [6])
COc1cccc(/C=C2\CCC/C(=C\c3cccc([N+](=O)[O-])c3)C2=O)c1OC,10.1 µg/mL,5.14 µg/mL,5.59 µg/mL,,,
CCCOc1c(Br)cc(/C=C2\CCC/C(=C\c3ccc([N+](=O)[O-])cc3)C2=O)cc1OC,23.3 µg/mL,7.98 µg/mL,4.01 µg/mL,,,
O=C1/C(=C/c2ccc(Cl)cc2)CCC/C1=C\c1ccc([N+](=O)[O-])cc1,14 µg/mL,1.02 µg/mL,12.4 µg/mL,,,
COc1cc(/C=C2\CCC/C(=C\c3ccc([N+](=O)[O-])cc3)C2=O)cc(Br)c1OC,9.86 µg/mL,11 µg/mL,8.71 µg/mL,,,
CCCCOc1c(Br)cc(/C=C2\CCC/C(=C\c3ccc([N+](=O)[O-])cc3)C2=O)cc1OC,41.3 µg/mL,27 µg/mL,8.38 µg/mL,,,
CCCOc1c(Br)cc(/C=C2\CCC/C(=C\c3ccccc3[N+](=O)[O-])C2=O)cc1OC,3.5 µg/mL,4.14 µg/mL,1.99 µg/mL,10,,
COc1cccc(/C=C2\CCC/C(=C\c3ccc([N+](=O)[O-])cc3)C2=O)c1OC,22.1 µg/mL,13.3 µg/mL,6.73 µg/mL,,,
COc1cc(/C=C2\CCC/C(=C\c3cccc([N+](=O)[O-])c3)C2=O)cc(Br)c1OC,16.7 µg/mL,4.72 µg/mL,13.9 µg/mL,,,
COc1cc(/C=C2\CCC/C(=C\c3ccc([N+](=O)[O-])cc3)C2=O)cc(Br)c1O,16.8 µg/mL,4.93 µg/mL,> 100 µg/mL,,,
CCCOc1c(Br)cc(/C=C2\CCC/C(=C\c3cccc([N+](=O)[O-])c3)C2=O)cc1OC,1.51 µg/mL,0.85 µg/mL,2.99 µg/mL,7,7,7
COc1cc([C@@H]2c3cc4c(cc3[C@@H](O[C@@H]3O[C@@H]5CO[C@@H](C)O[C@H]5[C@H](O)[C@H]3O)[C@H]3COC(=O)[C@H]23)OCO4)cc(OC)c1O [ETOPOSIDE],14 µg/mL,18.4 µg/mL,20.5 µg/mL,,,
COc1ccc(/C=C2\CCC/C(=C\c3cccc([N+](=O)[O-])c3)C2=O)cc1,10.4 µg/mL,5.71 µg/mL,44.7 µg/mL,,,
COc1cc(/C=C2\CCC/C(=C\c3ccccc3[N+](=O)[O-])C2=O)cc(Br)c1OC,6.24 µg/mL,3.35 µg/mL,8.99 µg/mL,,,
COc1cccc(/C=C2\CCC/C(=C\c3ccccc3[N+](=O)[O-])C2=O)c1,4.49 µg/mL,5.62 µg/mL,14.3 µg/mL,,,
COc1cc(/C=C2\CCC/C(=C\c3ccc([N+](=O)[O-])cc3)C2=O)ccc1O,48 µg/mL,7.05 µg/mL,13.1 µg/mL,,,
CCOc1c(Br)cc(/C=C2\CCC/C(=C\c3cccc([N+](=O)[O-])c3)C2=O)cc1OC,10.8 µg/mL,24.9 µg/mL,19.3 µg/mL,,,
O=C1/C(=C/c2ccc([N+](=O)[O-])cc2)CCC/C1=C\c1cccc([N+](=O)[O-])c1,17.9 µg/mL,8.4 µg/mL,8.85 µg/mL,,,
COc1cccc(/C=C2\CCC/C(=C\c3cccc([N+](=O)[O-])c3)C2=O)c1,4.94 µg/mL,4.17 µg/mL,13.2 µg/mL,,,
COc1cccc(/C=C2\CCC/C(=C\c3ccc([N+](=O)[O-])cc3)C2=O)c1,11.5 µg/mL,5.82 µg/mL,51.4 µg/mL,,,
CCCCOc1c(Br)cc(/C=C2\CCC/C(=C\c3cccc([N+](=O)[O-])c3)C2=O)cc1OC,25.3 µg/mL,5.97 µg/mL,5.53 µg/mL,,,
CCOc1c(Br)cc(/C=C2\CCC/C(=C\c3ccc([N+](=O)[O-])cc3)C2=O)cc1OC,3.91 µg/mL,3.08 µg/mL,34.7 µg/mL,,,
O=C1/C(=C/c2cccc(Cl)c2)CCC/C1=C\c1cccc([N+](=O)[O-])c1,4.15 µg/mL,5.15 µg/mL,5.01 µg/mL,,,
COc1ccc(/C=C2\CCC/C(=C\c3ccccc3[N+](=O)[O-])C2=O)cc1,75 µg/mL,11.2 µg/mL,45 µg/mL,,,
